Measurements reported in patent US20230332252A1, “CELL-FREE BIOSENSORS WITH DNA STRAND DISPLACEMENT CIRCUITS AND POLYMERASE STRAND RECYCLING (PSR)” (Northwestern University, priority 2021, published 2023).

Tests used:
TtgR = biological target: T1, TtgR (Pseudomonas putida, UniProt Q88N29); experiment: TtgR-regulated in vitro transcription of InvadeR with TMSD fluorescence output; type: biochemical; conditions: TtgR-regulated reactions, with versus without ligand
T1 construct: made in house; host or cells: E. coli Rosetta 2(DE3)pLysS, pET-28c backbone (pJBL721)
Description: (§1) In addition to TetR, we chose TtgR [44] and SmtB [45] as representative aTFs of the MarR family and SmtB/ArsR family, respectively. We placed the cognate operator sequence of each aTF 2-bp downstream of the T7 promoter and immediately upstream of the InvadeR sequences (FIG. 4a-c). When tetracycline was used to induce TetR-regulated reactions, we observed a strong and robust fluorescent signal visible in ˜10 minutes (FIG. 4d, FIG. 13a). […] We note that we observed a slight decrease in the induction speed from the TtgR-regulated reactions compared to that of the TetR-regulated reactions, likely due to the reduced ttgO DNA template concentration needed to accommodate TtgR's relatively weak binding affinity to its operator sequence.
(§2) Regulated IVT reactions additionally included a purified aTF at the indicated concentration and were equilibrated at 37° C. for ˜10 minutes. Immediately prior to plate reader measurements, 2 ng of T7 RNAP and, optionally, a ligand at the indicated concentration were added to the reaction. Reactions were then characterized on a plate reader as described in Plate reader quantification and micromolar equivalent fluorescein (MEF) standardization.

SmtB = biological target: T2, SmtB (Synechococcus elongatus, UniProt P30340); experiment: SmtB-regulated in vitro transcription of InvadeR with TMSD fluorescence output; type: biochemical; conditions: improved smtO-hairpin-InvadeR design, low background signal
T2 construct: 6xHis (C); made in house; host or cells: E. coli Rosetta 2(DE3)pLysS, pET-28c backbone (pJBL725)
T2 sequence (P30340 with tags, fused parts or gaps): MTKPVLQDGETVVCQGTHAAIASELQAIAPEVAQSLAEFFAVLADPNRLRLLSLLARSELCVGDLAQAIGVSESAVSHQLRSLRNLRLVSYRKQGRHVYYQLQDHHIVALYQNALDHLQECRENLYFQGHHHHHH
Description: as §1
We were immediately successful in adapting the system to TetR and TtgR (FIG. 4a, b). […]
as §2

TetR = biological target: T3, TetR (Escherichia coli, UniProt P04483); experiment: biochemical
T3 construct: made in house; host or cells: E. coli Rosetta 2(DE3)pLysS, pET-28c backbone (pJBL701)
Description: To test if this spacing remained important in the TMSD platform, we used TetR as our model aTF to determine the optimum spacing for efficient repression in the presence of TetR and efficient transcription in the absence of TetR [41]. We used the native sequence that follows the canonical T7 RNAP promoter as a spacer in 2-bp increments from 0 to 10-bp, immediately followed by the tetO sequence and InvadeR sequence (FIG. 3a). IVT reactions were set up using 50 nM DNA template with or without purified recombinant TetR protein in 100-fold excess of the DNA template. […]
Using the 2-bp spacer, we next determined whether TetR can be de-repressed with its cognate ligand, anhydrotetracycline (aTc) to allow transcription of InvadeR (FIG. 3c). […]
Homemade IVT reactions were set up by adding the following components listed at their final concentration: IVT buffer (40 mM Tris-HCl pH 8, 8 mM MgCl2, 10 mM DTT, 20 mM NaCl, and 2 mM spermidine), 11.4 mM NTPs pH 7.5, 0.3 U thermostable inorganic pyrophosphatase (#M0296S, New England Biolabs), transcription template, DNA gate(s) and MilliQ ultrapure H2O to a total volume of 20 μL. […] Immediately prior to plate reader measurements, 2 ng of T7 RNAP and, optionally, a ligand at the indicated concentration were added to the reaction.

T1 sequence (Q88N29 other isoform, or with tags, fused parts or gaps): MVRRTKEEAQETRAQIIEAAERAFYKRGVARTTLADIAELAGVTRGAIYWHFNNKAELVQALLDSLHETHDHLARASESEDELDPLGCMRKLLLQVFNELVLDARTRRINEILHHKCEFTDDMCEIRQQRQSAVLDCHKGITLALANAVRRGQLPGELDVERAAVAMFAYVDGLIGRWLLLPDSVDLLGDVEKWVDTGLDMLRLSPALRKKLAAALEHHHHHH

O=C1C[C@@H](c2ccc(O)cc2)Oc2cc(O)cc(O)c21 [naringenin]
fluorescence activation by ligand (TtgR): robust fluorescence activation only in the presence of the ligand

O=S(=O)([O-])[O-].[Zn+2] [ZnSO4]
fluorescence activation by ligand (SmtB): clear activation

Cc1c2c(c(O)c3c(O)cccc13)C(=O)[C@]1(O)C(=O)C(C(N)=O)=C(O)[C@@H](N(C)C)[C@@H]1C2 [aTc, anhydrotetracycline]
EC50 (TetR): 2.5 to 5 µM
